Test results from ChEMBL document CHEMBL4229467, “Acyl Glucuronide Metabolites of 6-Chloro-5-[4-(1-hydroxycyclobutyl)phenyl]-1 H-indole-3-carboxylic Acid (PF-06409577) and Related Indole-3-carboxylic Acid Derivatives are Direct Activators of Adenosine Monophosphate-Activated Protein Kinase (AMPK)” (J Med Chem, 2018).

What was measured:
[1] = Half life in rat hepatocytes; type: ADME, cell-based, Hepatocyte
[2] = Intrinsic clearance in human primary hepatocytes assessed per million cells; type: ADME, cell-based, Hepatocyte; settings: read-out: CLH
[3] = Half life in human primary hepatocytes at 10 uM; type: ADME, cell-based, Hepatocyte
[4] = Half life of the compound in deuteriated phosphate buffer at pH 7.4 at 37 degC measured every 25 mins for 21 hrs by 1H NMR analysis; type: physicochemical
[5] = Drug level in human hepatocytes treated with 6-chloro-5-[4-(1-hydroxycyclobutyl)phenyl]-1H-indole-3-carboxylic acid at 10 uM after 4 hrs by HPLC-UV analysis; type: ADME, cell-based, Hepatocyte
[6] = Plasma clearance in Wistar Han rat at 0.5 mg/kg, iv by LC-MS/MS analysis; type: ADME, organism-based
[7] = AUC (0 to 24 hrs) in Wistar Han rat at 0.5 mg/kg, iv by LC-MS/MS analysis; type: ADME, organism-based; set-up: time < 24 hr, dose 0.5 mg/kg, route intravenous; settings: in vivo
Rattus norvegicus = experiment: AUC (0 to 24 hrs) in Wistar Han rat assessed as 6-chloro-5-[4-(1-hydroxycyclobutyl)phenyl]-1H-indole-3-carboxylic acid level at 0.5 mg/kg, iv by LC-MS/MS analysis; type: ADME, organism-based; set-up: time < 24 hr, dose 0.5 mg/kg, route intravenous; settings: in vivo
[8] = Volume of distribution at steady state in Wistar Han rat at 0.5 mg/kg, iv by LC-MS/MS analysis; type: ADME, organism-based; settings: in vivo, read-out: Vdss
[9] = Half life in Wistar Han rat at 0.5 mg/kg, iv by LC-MS/MS analysis; type: ADME, organism-based; settings: in vivo
Cynomolgus monkey = experiment: AUC (0 to 24 hrs) in cynomolgus monkey assessed as 6-chloro-5-[4-(1-hydroxycyclobutyl)phenyl]-1H-indole-3-carboxylic acid level at 0.5 mg/kg, iv by LC-MS/MS analysis; type: ADME, organism-based, Macaca fascicularis; set-up: dose 0.5 mg/kg, time < 24 hr, route intravenous; settings: in vivo
[10] = Drug recovery in Wistar Han rat urine assessed as unchanged parent compound level at 0.5 mg/kg, iv by LC-MS/MS analysis; type: ADME, organism-based; settings: read-out: Drug recovery
[11] = Half life in human hepatocytes; type: ADME, cell-based, Hepatocyte
[12] = Half life in monkey hepatocytes; type: ADME, cell-based, Macaca mulatta, Hepatocyte; settings: rhesus monkey
[13] = Intrinsic clearance in rat hepatocytes assessed per million cells; type: ADME, cell-based, Hepatocyte; settings: read-out: CLH
[14] = Intrinsic clearance in human hepatocytes assessed per million cells; type: ADME, cell-based, Hepatocyte; settings: read-out: CLH
[15] = Intrinsic clearance in monkey hepatocytes assessed per million cells; type: ADME, cell-based, Macaca mulatta, Hepatocyte; settings: rhesus monkey, read-out: CLH
Hepatocyte = settings: human, hepatocytes, 4 h, 10 µM
Description: Retention time of the compound in human hepatocytes at 10 uM after 4 hrs by HPLC-UV analysis

in vivo [16] = settings: cynomolgus monkey, plasma, iv, 1 mg/kg
in vivo [17] = settings: cynomolgus monkey, iv, 1 mg/kg
in vivo [18] = settings: cynomolgus monkey, iv, 1 mg/kg; remark: listed apart in the source
Description: Volume of distribution at steady state in cynomolgus monkey at 1 mg/kg, iv by LC-MS/MS analysis

in vivo [19] = settings: cynomolgus monkey, iv, 1 mg/kg; remark: listed apart in the source
Description: Half life in cynomolgus monkey at 1 mg/kg, iv by LC-MS/MS analysis

in vivo [20] = settings: cynomolgus monkey, urine, iv, 1 mg/kg
Description: Drug recovery in cynomolgus monkey urine assessed as unchanged parent compound level at 1 mg/kg, iv by LC-MS/MS analysis

in vitro [21] = settings: rhesus monkey, plasma
Description: Protein binding in monkey plasma assessed as unbound fraction

in vitro [22] = settings: human, plasma
Description: Protein binding in human plasma assessed as unbound fraction

in vitro [23] = settings: rat, plasma
Description: Protein binding in rat plasma assessed as unbound fraction

in vitro [24] = settings: dog, MDCK
Description: Apparent passive permeability of the compound in RRCK cells by FACS analysis

physchem = settings: in vivo, pH 7.4
[25] = Drug level in human hepatocytes treated with (S)-4,6-difluoro-5-(4-(tetrahydro-2H-pyran-2-yl)phenyl)-1H-indole-3-carboxylic acid at 10 uM after 4 hrs by HPLC-UV analysis; type: ADME, cell-based, Hepatocyte
[26] = target: AMP-activated protein kinase (AMPK) alpha-1/beta-1/gamma-1 (Homo sapiens) (UniProt P54619+Q9Y478+Q13131)
AMP-activated protein kinase (AMPK) alpha-1/beta-1/gamma-1 (Homo sapiens), sequence (P54619 whole entry): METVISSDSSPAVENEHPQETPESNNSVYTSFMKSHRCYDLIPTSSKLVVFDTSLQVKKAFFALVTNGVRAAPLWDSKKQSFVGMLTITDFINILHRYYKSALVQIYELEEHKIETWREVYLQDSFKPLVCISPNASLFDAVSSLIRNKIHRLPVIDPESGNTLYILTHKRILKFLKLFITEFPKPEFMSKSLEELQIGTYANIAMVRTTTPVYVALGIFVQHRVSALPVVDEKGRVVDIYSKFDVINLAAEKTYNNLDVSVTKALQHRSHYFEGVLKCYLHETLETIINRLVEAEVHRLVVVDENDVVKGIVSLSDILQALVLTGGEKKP
AMP-activated protein kinase (AMPK) alpha-1/beta-1/gamma-1 (Homo sapiens), sequence (Q13131 whole entry partner): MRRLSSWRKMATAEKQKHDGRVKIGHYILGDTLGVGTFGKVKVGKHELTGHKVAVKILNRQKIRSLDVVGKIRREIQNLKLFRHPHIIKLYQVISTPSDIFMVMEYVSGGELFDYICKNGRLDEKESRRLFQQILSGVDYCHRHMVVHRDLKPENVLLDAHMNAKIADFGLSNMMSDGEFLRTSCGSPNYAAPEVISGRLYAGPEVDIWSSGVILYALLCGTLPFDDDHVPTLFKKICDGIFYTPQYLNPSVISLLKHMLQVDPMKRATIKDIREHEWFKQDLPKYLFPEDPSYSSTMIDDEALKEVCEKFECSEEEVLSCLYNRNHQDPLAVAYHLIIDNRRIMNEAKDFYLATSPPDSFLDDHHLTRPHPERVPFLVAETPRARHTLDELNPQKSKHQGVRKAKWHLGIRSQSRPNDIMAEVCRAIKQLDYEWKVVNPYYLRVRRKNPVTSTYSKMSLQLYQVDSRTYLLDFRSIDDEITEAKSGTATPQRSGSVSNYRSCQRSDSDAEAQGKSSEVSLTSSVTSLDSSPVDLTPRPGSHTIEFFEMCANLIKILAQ
AMP-activated protein kinase (AMPK) alpha-1/beta-1/gamma-1 (Homo sapiens), sequence (Q9Y478 2-270 partner limits assumed): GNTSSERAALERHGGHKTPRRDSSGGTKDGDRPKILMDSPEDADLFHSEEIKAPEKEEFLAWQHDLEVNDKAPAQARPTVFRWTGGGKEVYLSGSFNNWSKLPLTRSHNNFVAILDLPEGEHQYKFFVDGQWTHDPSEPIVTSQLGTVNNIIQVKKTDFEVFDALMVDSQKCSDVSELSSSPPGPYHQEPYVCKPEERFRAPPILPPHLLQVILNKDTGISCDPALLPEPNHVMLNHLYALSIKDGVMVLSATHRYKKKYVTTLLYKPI
Description: Binding affinity to Bap-tagged human AMPKalpha1beta1gamma1 expressed in Escherichia coli BL21 cells assessed as dissociation half life by SPR analysis

AMPK alpha2/beta2/gamma3 = AMPK alpha2/beta2/gamma3 (Homo sapiens, UniProt O43741+P54646+Q9UGI9); experiment: biochemical
AMPK alpha2/beta2/gamma3, sequence (P54646 whole entry): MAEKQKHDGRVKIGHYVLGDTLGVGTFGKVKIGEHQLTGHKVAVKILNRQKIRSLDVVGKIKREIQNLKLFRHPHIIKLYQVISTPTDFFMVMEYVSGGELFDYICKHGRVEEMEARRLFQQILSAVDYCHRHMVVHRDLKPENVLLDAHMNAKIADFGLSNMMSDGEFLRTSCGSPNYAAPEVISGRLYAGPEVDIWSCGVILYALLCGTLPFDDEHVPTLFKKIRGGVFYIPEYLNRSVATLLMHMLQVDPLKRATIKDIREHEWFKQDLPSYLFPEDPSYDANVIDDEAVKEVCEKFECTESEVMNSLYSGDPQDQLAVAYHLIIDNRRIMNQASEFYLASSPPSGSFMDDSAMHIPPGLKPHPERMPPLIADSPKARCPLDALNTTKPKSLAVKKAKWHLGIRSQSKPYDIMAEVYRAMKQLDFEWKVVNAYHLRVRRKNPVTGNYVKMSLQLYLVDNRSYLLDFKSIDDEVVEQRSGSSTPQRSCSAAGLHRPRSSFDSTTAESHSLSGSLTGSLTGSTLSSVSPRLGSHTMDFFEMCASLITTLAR
AMPK alpha2/beta2/gamma3, sequence (O43741 whole entry): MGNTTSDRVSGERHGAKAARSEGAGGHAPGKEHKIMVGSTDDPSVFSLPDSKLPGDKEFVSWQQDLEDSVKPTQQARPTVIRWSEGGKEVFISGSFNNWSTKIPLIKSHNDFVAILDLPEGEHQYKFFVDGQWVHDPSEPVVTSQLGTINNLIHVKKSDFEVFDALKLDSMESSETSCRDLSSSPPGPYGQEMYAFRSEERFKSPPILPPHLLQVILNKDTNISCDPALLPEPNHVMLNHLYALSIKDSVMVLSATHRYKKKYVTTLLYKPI
AMPK alpha2/beta2/gamma3, sequence (Q9UGI9 whole entry): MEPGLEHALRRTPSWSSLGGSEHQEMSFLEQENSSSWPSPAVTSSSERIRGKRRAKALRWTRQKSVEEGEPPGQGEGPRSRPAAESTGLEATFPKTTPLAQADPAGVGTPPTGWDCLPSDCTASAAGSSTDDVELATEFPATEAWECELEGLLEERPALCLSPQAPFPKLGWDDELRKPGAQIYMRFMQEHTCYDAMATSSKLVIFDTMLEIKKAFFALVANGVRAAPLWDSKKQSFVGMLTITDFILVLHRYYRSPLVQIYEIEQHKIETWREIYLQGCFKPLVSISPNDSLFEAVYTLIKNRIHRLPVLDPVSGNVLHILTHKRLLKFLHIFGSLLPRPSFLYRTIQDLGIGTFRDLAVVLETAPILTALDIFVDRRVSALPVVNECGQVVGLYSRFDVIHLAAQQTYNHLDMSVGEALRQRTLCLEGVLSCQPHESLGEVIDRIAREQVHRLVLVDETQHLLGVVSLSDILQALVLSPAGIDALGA
Description: Activation of full-length recombinant N-terminal His-tagged human AMPKalpha2beta2gamma3 expressed in Escherichia coli BL21 cells using Cy-5 SAMS peptide as substrate preincubated for 60 mins followed by substrate addition and measured after 60 mins in presence of PP2a by TR-FRET assay

[27] = target: T1, AMP-activated protein kinase (AMPK) alpha-1/beta-1/gamma-1 (Homo sapiens, UniProt P54619+Q13131+Q9Y478); experiment: biochemical
T1 sequence (P54619 whole entry): as the sequence (P54619 whole entry) above
T1 sequence (Q9Y478 whole entry): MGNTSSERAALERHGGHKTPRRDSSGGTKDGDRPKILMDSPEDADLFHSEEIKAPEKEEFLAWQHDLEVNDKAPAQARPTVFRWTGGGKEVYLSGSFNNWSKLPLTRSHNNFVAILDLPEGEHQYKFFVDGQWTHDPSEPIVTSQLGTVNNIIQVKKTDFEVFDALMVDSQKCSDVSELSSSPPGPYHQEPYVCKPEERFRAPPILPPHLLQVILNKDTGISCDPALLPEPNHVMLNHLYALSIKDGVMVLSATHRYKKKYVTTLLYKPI
T1 sequence (Q13131 whole entry): as the sequence (Q13131 whole entry partner) above
Description: Binding affinity to Bap-tagged human AMPKalpha1beta1gamma1 expressed in Escherichia coli BL21 cells by SPR analysis

AMPK alpha2/beta2/gamma1 = AMPK alpha2/beta2/gamma1 (Homo sapiens, UniProt O43741+P54619+P54646); experiment: biochemical
AMPK alpha2/beta2/gamma1, sequence (P54646 whole entry): as the sequence (P54646 whole entry) above
AMPK alpha2/beta2/gamma1, sequence (O43741 whole entry): as the sequence (O43741 whole entry) above
AMPK alpha2/beta2/gamma1, sequence (P54619 whole entry): as the sequence (P54619 whole entry) above
Description: Activation of full-length recombinant N-terminal His-tagged human AMPKalpha2beta2gamma1 expressed in Escherichia coli BL21 cells using Cy-5 SAMS peptide as substrate preincubated for 60 mins followed by substrate addition and measured after 60 mins in presence of PP2a by TR-FRET assay

AMPK alpha1/beta2/gamma1 = AMPK alpha1/beta2/gamma1 (Homo sapiens, UniProt O43741+P54619+Q13131); experiment: biochemical
AMPK alpha1/beta2/gamma1, sequence (O43741 whole entry): as the sequence (O43741 whole entry) above
AMPK alpha1/beta2/gamma1, sequence (P54619 whole entry): as the sequence (P54619 whole entry) above
AMPK alpha1/beta2/gamma1, sequence (Q13131 whole entry): as the sequence (Q13131 whole entry partner) above
Description: Activation of full-length recombinant N-terminal His-tagged human AMPKalpha1beta2gamma1 expressed in Escherichia coli BL21 cells using Cy-5 SAMS peptide as substrate preincubated for 60 mins followed by substrate addition and measured after 60 mins in presence of PP2a by TR-FRET assay

AMPK alpha2/beta1/gamma1 = AMPK alpha2/beta1/gamma1 (Homo sapiens, UniProt P54619+P54646+Q9Y478); experiment: biochemical
AMPK alpha2/beta1/gamma1, sequence (P54646 whole entry): as the sequence (P54646 whole entry) above
AMPK alpha2/beta1/gamma1, sequence (P54619 whole entry): as the sequence (P54619 whole entry) above
AMPK alpha2/beta1/gamma1, sequence (Q9Y478 whole entry): as the sequence (Q9Y478 whole entry) above
Description: Activation of full-length recombinant N-terminal His-tagged human AMPKalpha2beta1gamma1 expressed in Escherichia coli BL21 cells using Cy-5 SAMS peptide as substrate preincubated for 60 mins followed by substrate addition and measured after 60 mins in presence of PP2a by TR-FRET assay

[28] = target: T1, AMP-activated protein kinase (AMPK) alpha-1/beta-1/gamma-1; experiment: biochemical; remark: listed apart in the source
Description: Activation of full-length recombinant N-terminal His-tagged human AMPKalpha1beta1gamma1 expressed in Escherichia coli BL21 cells using Cy-5 SAMS peptide as substrate preincubated for 60 mins followed by substrate addition and measured after 60 mins in presence of PP2a by TR-FRET assay

[29] = Drug level in human hepatocytes treated with 6-chloro-5-(6-(dimethylamino)-2-methoxypyridin-3-yl)-1H-indole-3-carboxylic acid at 10 uM after 4 hrs by HPLC-UV analysis; type: ADME, cell-based, Hepatocyte
[30] = Drug metabolism in human hepatocytes assessed as (2S,3S,4S,5R,6S)-6-((4,6-Difluoro-5-(4-((S)-tetrahydro-2H-pyran-2-yl)phenyl-1H-indole-3-carbonyl)oxy)-3,4,5-trihydroxytetrahydro-2H-pyran-2-carboxylic acid formation at 10 uM after 4 hrs by HPLC-UV analysis; type: ADME, cell-based, Hepatocyte

Question: Which half-life [1] does the source give for O=C(O[C@@H]1O[C@H](C(=O)O)[C@@H](O)[C@H](O)[C@H]1O)c1c[nH]c2cc(Cl)c(-c3ccc(C4(O)CCC4)cc3)cc12 here?
Answer: The half-life was > 4 h.

Question: And the hepatocyte CLint [2]?
Answer: The hepatocyte CLint was < 3 µL/min/1e6 cells.

Question: What about the half-life at 10 µM [3] of the same molecule?
Answer: The half-life at 10 µM was > 6.67 h.

Question: What about the half-life [4] of the same molecule?
Answer: Its half-life is > 21 h.

Question: What about the Drug metabolism [5] of the same molecule?
Answer: The Drug metabolism was “Metabolite_Detected”.

Question: And the clearance [6]?
Answer: The clearance was 0.99 mL/min/kg.

Question: And the AUC(0-t) at 24 h [7]?
Answer: Its AUC(0-t) at 24 h is 8850 ng·h/mL.

Question: What about the AUC (Rattus norvegicus) of the same molecule?
Answer: Its AUC is 101 ng·h/mL.

Question: And the Vd [8]?
Answer: Its Vd is 0.4 L/kg.

Question: And the half-life [9]?
Answer: The half-life was 6.96 h.

Question: And the AUC (Cynomolgus monkey)?
Answer: The AUC was 303 ng·h/mL.

Question: And the dose excreted [10]?
Answer: Its dose excreted is 1%.

Question: What about the half-life [11] of the same molecule?
Answer: Its half-life is > 4 h.

Question: What about the half-life [12] of the same molecule?
Answer: Its half-life is > 4 h.

Question: And the hepatocyte CLint [13]?
Answer: The hepatocyte CLint was < 6 µL/min/1e6 cells.

Question: What about the hepatocyte CLint [14] of the same molecule?
Answer: Its hepatocyte CLint is < 6 µL/min/1e6 cells.

Question: And the hepatocyte CLint [15]?
Answer: The hepatocyte CLint was < 6 µL/min/1e6 cells.

Question: And the Retention_time (Hepatocyte)?
Answer: The Retention_time was 7.09 min.

Question: And the clearance (in vivo [16])?
Answer: The clearance was 9.85 mL/min/kg.

Question: And the AUC(0-t) at 24 h (in vivo [17])?
Answer: Its AUC(0-t) at 24 h is 1750 ng·h/mL.

Question: What about the Vd (in vivo [18]) of the same molecule?
Answer: The Vd was 4.52 L/kg.

Question: What about the half-life (in vivo [19]) of the same molecule?
Answer: Its half-life is 18 h.

Question: What about the dose excreted (in vivo [20]) of the same molecule?
Answer: Its dose excreted is 9.8%.

Question: And the fraction unbound (in vitro [21])?
Answer: The fraction unbound was 0.028.

Question: And the fraction unbound (in vitro [22])?
Answer: The fraction unbound was 0.019.

Question: What about the fraction unbound (in vitro [23]) of the same molecule?
Answer: Its fraction unbound is 0.0018.

Question: And the Papp (in vitro [24])?
Answer: Its Papp is 0.6 ×10⁻⁶ cm/s.

Question: And the logD at 1 h (physchem)?
Answer: The logD at 1 h was -0.14.

Question: Which Drug metabolism [5] does the source give for O=C(NO)c1c[nH]c2cc(Cl)c(-c3ccc(C4(O)CCC4)cc3)cc12 here?
Answer: Its Drug metabolism is “Metabolite_Detected”.

Question: And the Retention_time (Hepatocyte)?
Answer: The Retention_time was 7.25 min.

Question: Which results are given for O=C(O[C@@H]1O[C@H](C(=O)O)[C@@H](O)[C@H](O)[C@H]1O)c1c[nH]c2cc(F)c(-c3ccc([C@@H]4CCCCO4)cc3)c(F)c12?
Answer: half-life [4]: > 21 h; Drug metabolism [25]: Metabolite_Detected; T1/2 [26]: 15.3 s; Retention_time (Hepatocyte): 8.37 min; Papp (in vitro [24]): 0.3 ×10⁻⁶ cm/s; logD at 1 h (physchem): 0.08; EC50 (AMPK alpha2/beta2/gamma3): > 40000 nM; Kd [27]: 198 nM; EC50 (AMPK alpha2/beta2/gamma1): > 40000 nM; EC50 (AMPK alpha1/beta2/gamma1): > 40000 nM; EC50 (AMPK alpha2/beta1/gamma1): 332 nM; EC50 [28]: 59 nM

Question: With COc1nc(N(C)C)ccc1-c1cc2c(C(=O)O)c[nH]c2cc1Cl as the molecule, how does the logD at 1 h (physchem) read?
Answer: The logD at 1 h was 2.3.

Question: For COc1nc(N(C)C)ccc1-c1cc2c(C(=O)O[C@@H]3O[C@H](C(=O)O)[C@@H](O)[C@H](O)[C@H]3O)c[nH]c2cc1Cl, which hepatocyte CLint [2] is on record?
Answer: Its hepatocyte CLint is < 3 µL/min/1e6 cells.

Question: And the half-life at 10 µM [3]?
Answer: Its half-life at 10 µM is > 6.67 h.

Question: What about the half-life [4] of the same molecule?
Answer: The half-life was > 21 h.

Question: What about the Drug metabolism [29] of the same molecule?
Answer: The Drug metabolism was “Metabolite_Detected”.

Question: What about the Retention_time (Hepatocyte) of the same molecule?
Answer: Its Retention_time is 7.96 min.

Question: And the Papp (in vitro [24])?
Answer: Its Papp is 0.3 ×10⁻⁶ cm/s.

Question: What about the logD at 1 h (physchem) of the same molecule?
Answer: Its logD at 1 h is -0.05.

Question: For O=C(O)c1c[nH]c2cc(F)c(-c3ccc([C@@H]4CCCCO4)cc3)c(F)c12, which Drug metabolism [30] is on record?
Answer: The Drug metabolism was “Metabolite_Detected”.

Question: And the Retention_time (Hepatocyte)?
Answer: The Retention_time was 9.72 min.

Question: What about the logD at 1 h (physchem) of the same molecule?
Answer: Its logD at 1 h is 1.8.
